Test results from patent publication US6737383B1, “Herbicidal oxadiazolidines” (priority 1999, dated 2004).

Legend:
blackgrass = assay: Test B pre/postemergence blackgrass; assay type: in vivo, Alopecurus myosuroides
Outline: (§1)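 Response is a visual 0-to-10 score relative to untreated plants, where 0 means no effect and 10 means complete control, taken twelve to sixteen days after application. Treatments went onto soil at planting and onto foliage of 1- to 4-leaf plants, using a surfactant-containing non-phytotoxic solvent.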

cocklebur = assay: Test B pre/postemergence cocklebur; assay type: in vivo, Xanthium strumarium
Outline: as §1

corn = assay: Test B pre/postemergence corn; assay type: in vivo, Zea mays
Outline: as §1

crabgrass = assay: Test B pre/postemergence crabgrass; assay type: in vivo, Digitaria sanguinalis
Outline: as §1

giant foxtail = assay: Test B pre/postemergence giant foxtail; assay type: in vivo, Setaria faberii
Outline: as §1

morningglory = assay: Test B pre/postemergence morningglory; assay type: in vivo, Ipomoea hederacea
Outline: as §1

pigweed = assay: Test B pre/postemergence pigweed; assay type: in vivo, Amaranthus retroflexus
Outline: as §1

rape = assay: Test B pre/postemergence rape; assay type: in vivo, Brassica napus
Outline: as §1

soybean = assay: Test B pre/postemergence soybean; assay type: in vivo, Glycine max
Outline: as §1

sugar beet = assay: Test B pre/postemergence sugar beet; assay type: in vivo, Beta vulgaris
Outline: as §1

velvetleaf = assay: Test B pre/postemergence velvetleaf; assay type: in vivo, Abutilon theophrasti
Outline: as §1

wheat = assay: Test B pre/postemergence wheat; assay type: in vivo, Triticum aestivum
Outline: as §1

purple nutsedge = assay: Test B pre/postemergence purple nutsedge; assay type: in vivo, Cyperus rotundus
Outline: as §1

rice = assay: Test B flood test rice; assay type: in vivo, Oryza sativa
Outline: (§2)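 Flood test on plants grown to the 2-leaf stage; treated plants kept in greenhouse twelve to sixteen days, then visually rated against controls on a 0 (no effect) to 10 (complete control) scale.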

smallflower flatsedge = assay: Test B flood test smallflower flatsedge; assay type: in vivo, Cyperus difformis
Outline: as §2

duck salad = assay: Test B flood test duck salad; assay type: in vivo, Heteranthera limosa
Outline: as §2

[1] = Postemergence, Rate 62 g/ha, scale 0 to 10, 0 is no effect, 10 is complete control
[2] = Postemergence, Rate 250 g/ha, scale 0 to 10, 0 no effect, 10 complete control
[3] = Preemergence, Rate 31 g/ha, visual rating, scale 0 to 10 (0 no effect, 10 complete control)
[4] = Preemergence, Rate 62 g/ha, scale 0 to 10, 0 is no effect, 10 is complete control
[5] = Preemergence, Rate 125 g/ha, scale 0 to 10 (0 no effect, 10 complete control)
[6] = Preemergence, Rate 250 g/ha, scale of 0 to 10 where 0 is no effect and 10 is complete control
[7] = Rate 31 g/ha, Postemergence, scale 0 to 10
[8] = Rate 125 g/ha, Postemergence, scale 0 to 10, 0 no effect, 10 complete control
[9] = Rate 125 g/ha, Postemergence section (flood test species), scale 0 to 10, 0 no effect, 10 complete control
[10] = Rate 500 g/ha, Postemergence section of Table B, 0 to 10 scale (0 no effect, 10 complete control)
[11] = flood test, listed under Postemergence, Rate 250 g/ha, scale 0 to 10, 0 no effect, 10 complete control

COc1ccccc1-n1c(=O)on(C(=O)N(c2ccc(F)cc2F)C(C)C)c1=O [Compound 31]
8: Plant response rating, Giant foxtail (giant foxtail; [5]) | Plant response rating, Giant foxtail (giant foxtail; [6])
1: Cocklebur plant response rating (cocklebur; [2]) | Giant foxtail plant response rating (giant foxtail; [3]) | Morningglory plant response rating (morningglory; [8]) | Soybean plant response rating (soybean; [1]) | Soybean plant response rating (soybean; [2]) | Soybean plant response rating (soybean; [8])
3: Morningglory plant response rating (morningglory; [2]) | Plant response rating, Redroot pigweed (pigweed; [6])
4: Blackgrass plant response rating (blackgrass; [8]) | Giant foxtail plant response rating (giant foxtail; [2]) | Plant response rating, Rape (rape; [6])
9: Blackgrass plant response rating (blackgrass; [2]) | Crabgrass plant response rating (crabgrass; [2]) | Plant response rating, Crabgrass (crabgrass; [4]) | Plant response rating, Crabgrass (crabgrass; [5]) | Plant response rating, Crabgrass (crabgrass; [6])
0: Blackgrass plant response rating (blackgrass; [1]) | Blackgrass plant response rating (blackgrass; [3]) | Plant response rating, Blackgrass (blackgrass; [4]) | Blackgrass plant response rating (blackgrass; [7]) | Cocklebur plant response rating (cocklebur; [1]) | Cocklebur plant response rating (cocklebur; [3]) | Plant response rating, Cocklebur (cocklebur; [4]) | Plant response rating, Cocklebur (cocklebur; [5]) | Plant response rating, Cocklebur (cocklebur; [6]) | Cocklebur plant response rating (cocklebur; [7]) | Cocklebur plant response rating (cocklebur; [8]) | Corn plant response rating (corn; [1]) | Corn plant response rating (corn; [2]) | Corn plant response rating (corn; [3]) | Plant response rating, Corn (corn; [4]) | Plant response rating, Corn (corn; [5]) | Plant response rating, Corn (corn; [6]) | Corn plant response rating (corn; [7]) | Corn plant response rating (corn; [8]) | Crabgrass plant response rating (crabgrass; [1]) | Crabgrass plant response rating (crabgrass; [7]) | Giant foxtail plant response rating (giant foxtail; [1]) | Giant foxtail plant response rating (giant foxtail; [7]) | Giant foxtail plant response rating (giant foxtail; [8]) | Morningglory plant response rating (morningglory; [1]) | Morningglory plant response rating (morningglory; [3]) | Plant response rating, Morningglory (morningglory; [4]) | Plant response rating, Morningglory (morningglory; [5]) | Plant response rating, Morningglory (morningglory; [6]) | Morningglory plant response rating (morningglory; [7]) | Redroot pigweed plant response rating (pigweed; [1]) | Redroot pigweed plant response rating (pigweed; [2]) | Redroot pigweed plant response rating (pigweed; [3]) | Plant response rating, Redroot pigweed (pigweed; [4]) | Plant response rating, Redroot pigweed (pigweed; [5]) | Redroot pigweed plant response rating (pigweed; [7]) | Redroot pigweed plant response rating (pigweed; [8]) | Rape plant response rating (rape; [1]) | Rape plant response rating (rape; [2]) | Rape plant response rating (rape; [3]) | Plant response rating, Rape (rape; [4]) | Plant response rating, Rape (rape; [5]) | Rape plant response rating (rape; [7]) | Rape plant response rating (rape; [8]) | Soybean plant response rating (soybean; [3]) | Plant response rating, Soybean (soybean; [4]) | Plant response rating, Soybean (soybean; [5]) | Plant response rating, Soybean (soybean; [6]) | Sugarbeets plant response rating (sugar beet; [1]) | Sugarbeets plant response rating (sugar beet; [2]) | Sugarbeets plant response rating (sugar beet; [3]) | Plant response rating, Sugarbeets (sugar beet; [4]) | Plant response rating, Sugarbeets (sugar beet; [5]) | Plant response rating, Sugarbeets (sugar beet; [6]) | Sugarbeets plant response rating (sugar beet; [8]) | Velvetleaf plant response rating (velvetleaf; [1]) | Velvetleaf plant response rating (velvetleaf; [2]) | Velvetleaf plant response rating (velvetleaf; [3]) | Plant response rating, Velvetleaf (velvetleaf; [4]) | Plant response rating, Velvetleaf (velvetleaf; [5]) | Plant response rating, Velvetleaf (velvetleaf; [6]) | Velvetleaf plant response rating (velvetleaf; [8]) | Wheat plant response rating (wheat; [1]) | Wheat plant response rating (wheat; [2]) | Wheat plant response rating (wheat; [3]) | Plant response rating, Wheat (wheat; [4]) | Plant response rating, Wheat (wheat; [5]) | Plant response rating, Wheat (wheat; [6]) | Wheat plant response rating (wheat; [8]) | Nutsedge plant response rating (purple nutsedge; [1]) | Nutsedge plant response rating (purple nutsedge; [2]) | Nutsedge plant response rating (purple nutsedge; [3]) | Plant response rating, Nutsedge (purple nutsedge; [4]) | Plant response rating, Nutsedge (purple nutsedge; [5]) | Plant response rating, Nutsedge (purple nutsedge; [6]) | Nutsedge plant response rating (purple nutsedge; [7]) | Nutsedge plant response rating (purple nutsedge; [8]) | Rice plant response rating (rice; [1]) | Rice plant response rating (rice; [9]) | Rice plant response rating (rice; [10]) | Rice plant response rating (rice; [11]) | S. Flatsedge plant response rating (smallflower flatsedge; [1]) | S. Flatsedge plant response rating (smallflower flatsedge; [9]) | S. Flatsedge plant response rating (smallflower flatsedge; [11]) | Ducksalad plant response rating (duck salad; [1]) | Ducksalad plant response rating (duck salad; [9]) | Ducksalad plant response rating (duck salad; [10]) | Ducksalad plant response rating (duck salad; [11])
6: Plant response rating, Giant foxtail (giant foxtail; [4])
2: Plant response rating, Blackgrass (blackgrass; [5]) | Plant response rating, Blackgrass (blackgrass; [6]) | Crabgrass plant response rating (crabgrass; [3]) | Crabgrass plant response rating (crabgrass; [8])
